From patent US20120269762A1, “CAUSAL THERAPY OF DISEASES OR CONDITIONS ASSOCIATED WITH CNS OR PNS DEMYELINATION” (UNIVERSITY COLLEGE DUBLIN, NATIONAL UNIVERSITY OF IRELAND, …, priority 2009, published 2012)

Key:
[1] = test system: organotypic cultures of rat hippocampus; experiment: LPC-induced demyelination in hippocampal organotypic slice culture (MBP immunofluorescence); type: cell-based, Wistar rats; conditions: 10 μm drug, 24 h post-LPC treatment (250 μg/ml LPC for 18 hours); compared to control
Procedure: Slices were maintained in normal organotypic medium for 10 days, at which point demyelination was induced by exposing the cultures to 250 μg/ml lysophosphatidylcholine (LPC) in the medium for 18 hours. After the LPC exposure, slices were returned to LPC free medium containing either 10 μm nefiracetam, 10 μm piracetam, 10 μm levetiracetam, 10 μm aniracetam, or no drug. […] Protoc. […] Labelled MBP in the cultures was imaged by confocal microscopy, and the degree of myelination was compared to time matched cultures that had not undergone LPC exposure.

[2] = test system: C57BL/6 mice on cuprizone diet; experiment: Cuprizone animal model of demyelination (luxol fast blue myelin staining, corpus callosum); type: in vivo; conditions: 30 mg/kg/day i.p. from 5 days before return to normal diet; 1 day time-point after 6 weeks cuprizone (0.2% wt/wt) diet
Procedure: Demyelination was induced by feeding 12-14 week old C57B1/6 mice a diet containing 0.2% cuprizone (bis-cyclohexanone oxaldihydrazone) mixed into food pellets. This diet was maintained ad libitum for 6 weeks before returning animals to normal chow (T=0) in order to study remyelination. Control animals received control chow throughout the study. Commencing from 5 days before the return to control chow (T=−5 days), animals received daily intra-peritoneal injections of 30 mg/kg nefiracetam or vehicle only until the end of the study. At different time points, (T=1 day, T=3 days, T=7 days) animals were sacrificed, brains were snap frozen in Optimal Cutting Temperature (OTC) Compound and stored. Coronal frozen sections, 20 μm thick, were cut using a cryostat at approximately −1.8 mm from bregma. Sections were fixed in 70% ethanol, defatted in 50% chloroform/50% ethanol, rehydrated, and then myelin was stained with luxol fast blue. The degree of myelination in the corpus callosum was assessed based on the intensity of the luxol fast blue staining

[3] = test system: Lewis rats susceptible to develop experimental autoimmune encephalomyelitis (EAE); experiment: EAE animal model of multiple Sclerosis (clinical score); type: in vivo; conditions: versus saline-treated controls, n=5
[4] = clinical studies, oral administration; cited from earlier work

For `CC[C@H](C(N)=O)N1CCCC1=O` [levetiracetam], which “MBP expression (percent of field of view positive for MBP)” value [1] is on record?
Its value is “restored MBP expression to control levels or above”.

For `NC(=O)CN1CCCC1=O` [piracetam], which “MBP expression (percent of field of view positive for MBP)” value [1] is on record?
Its value is “restored MBP expression to control levels or above”.

For `COc1ccc(C(=O)N2CCCC2=O)cc1` [aniracetam], which “MBP expression (percent of field of view positive for MBP)” value [1] is on record?
The value was “restored MBP expression to control levels or above”.

What does the source list for `Cc1cccc(C)c1NC(=O)CN1CCCC1=O` [Nefiracetam, N-(2,6-dimethylphenyl)-2-(2-oxo-1-pyrrolidinyl)acetamide]?
myelin levels (myelin density) in the corpus callosum [2]: completely restored myelin levels to normal; MBP expression (percent of field of view positive for MBP) [1]: restored MBP expression to control levels or above; clinical score (magnitude and timing of clinical symptoms) ([3]; increasing doses (9, 15 and 30 mg/kg) i.p. daily from onset of clinical symptoms): No significant differences were seen; clinical score (magnitude and timing of clinical symptoms) ([3]; treated from day of inoculation with MBP): No significant difference was seen; tolerability in humans [4]: well tolerated
